In series [1] the test system is Human cytomegalovirus (HCMV). Kind of series: HCMV antiviral assay, HCMV DNA quantified by DNA hybridization in MRC-5 cells. Type of series: cell-based. Particulars: for Selectivity Index: CC50/EC50, Human CMV in MRC-5 (Table 2).
The test system of another series is HSV-1. Kind of series: HSV-1 antiviral assay, HSV DNA quantified by nucleic acid hybridization in MRC-5 cells. Type of series: cell-based. Particulars: CC50/EC50 (Table 7).
In a further series the test system is HIV-1. The conditions noted are these: Human immunodeficiency virus 1, 72 h, read-out: EC50, in HIV-1 plaque reduction assay. On the technique in general: Plaques are areas of infected cells; plaque reduction assays count them against a control.
Series [2] deals with patients with steroid-induced osteoporosis. Kind of series: Stimulation of bone formation in humans with steroid-induced osteoporosis. Type of series: in vivo, human. Particulars: oral 0.1 to 100 mg/kg/day, one month to one year, vs placebo.
The subject of a further series is Calvarial cells. Kind of series: Dexamethasone-induced apoptosis in calvarial cells, trypan blue. The class given is cell-based, mice. Particulars: pretreatment at 10^−8 or greater for 1 hour, then 6 hours 10^−4 dexamethasone.
The next series concerns ovariectomized rats. The conditions noted are these: subcutaneous 0 to 8 mg/kg/day, four to twelve weeks, vs ovariectomized controls.
The subject of another series is MLO-Y4 osteocytic cells. Particulars: at 10^−8 to 10^−5 M; 1 hour pretreatment, then 6 hours 10^−4 M dexamethasone.
Series [3] relates to MRC-5 human lung fibroblast cells. Kind of series: Cytotoxicity of test compounds in vitro, visual estimate of 50% reduction in cell number. The conditions noted are these: MRC-5 cells.
Another series has as its system HT4-6C cells. Kind of series: Cytotoxicity by the method of Hostetler et al. (HIV study). The conditions noted are these: Table 6.
The nature of series [4]: Cytotoxicity of test compounds in vitro, visual estimate of 50% reduction in cell number. Particulars: human, MRC-5 human lung fibroblast cells.
Series [5] can be described thus: in vitro. The conditions noted are these: African green monkey.
Series [6] in a line: in vitro. Particulars: human.
The nature of series [7]: Cytotoxicity in CEM cells (CC50). The conditions noted are these: human; CEM cells (Table 1). Type of series: cell-based.
A further series has as its system postmenopausal women. The conditions noted are these: oral 0.1 to 100 mg/kg/day, two to three years, vs placebo.

Read-outs that look alike come from different tables or passages of the source.

These results are taken from US10071110B2, “Phosphonate compounds” (priority 1999, dated 2018).

Take `CCCCCCCCCCCCCCCCOP1(=O)COC(Cn2ccc(N)nc2=O)CO1` (stereo not drawn) [Hexadecyl-cCDV, hexadecyl-cCDV]: the “Selectivity Index” value in series [1] is listed as 163.

Take `CCCCCCCCCCCCCCCCCCOCCOP(=O)(O)COC(CO)Cn1ccc(N)nc1=O` (stereo not drawn) [1-O-octadecylethanediol-2-CDV]: in the series on HSV-1, the “Selectivity Index” value is 105,000.

A word on the EC50: it is the concentration at which the effect is half-maximal. Take `Cc1cn([C@H]2C[C@H](N=[N+]=[N-])[C@@H](CO)O2)c(=O)[nH]c1=O` [AZT, zidovudine]: the 50% effective concentration (EC50) with HIV-1 is 7 nM.

“1-O-octadecyloxypropyl-amino-olpadronate”: in series [2], the bone density result is “bone density is increased” and the fractures result was “fractures are decreased”.

`CCCCCCCCCCCCCCCCOCCCOP(=O)(O)C(O)(CCCN)P(=O)(O)O` (stereo not drawn) [HDP-alendronate, 1-O-Hexadececylpropanediol-3-alendronate]: the “effect on dexamethasone-induced increase in % dead cells” value in the series with Calvarial cells is given as “abolished the dexamethasone-induced increase in % dead cells”. Also, the “bone mass loss (ash weight of the femora)” value in the series with ovariectomized rats was “less bone mass loss than the ovariectomized controls”. Also, the “effect on dexamethasone-induced apoptosis (percentage of dead cells)” value with MLO-Y4 osteocytic cells is recorded as “inhibits dexamethasone-induced apoptosis”.

For hexadecyloxypropyl-adefovir [HDP-ADV], the CC50 (in series [3] (5 days (Table 2)); with HT4-6C cells) was 6.5 µM each time. Further, the concentration giving a half-maximal response (EC50) in series [1] (Human CMV replication in MRC-5 human lung fibroblasts, DNA reduction (Table 2), read-out: EC50) came out at 100 nM; in series [1] (preliminary experiments (Table 1), MRC-5 cells, 5 days, read-out: HCMV EC50) it was 10 nM.

Turning to `CCCCCCCCCCCCCCCCCCOCCOP1(=O)COC(Cn2ccc(N)nc2=O)CO1` (stereo not drawn) [1-O-octadecylethanediol-2-cCDV], the “Selectivity Index” value is reported as 40,000 in the series with HSV-1 and 1 × 10^6 in [1].

In the case of `CCCCCCCCCCCCCCCCCCOCCCOP1(=O)COC(Cn2ccc(N)nc2=O)CO1` (stereo not drawn) [1-O-octadecylpropanediol-3-cCDV], the “Selectivity Index” value is 970 with HSV-1 and 1 × 10^6 in [1].

As for `CCCCCCCCCCCCCCCCOCCCOP(=O)(O)CO[C@H](CO)Cn1ccc(N)nc1=O` [HDP-CDV], the “Selectivity Index” value in [1] is on record as 5 × 10^6.

Regarding `CCCCCCCCCCCCCCCCCCOCCCOP(=O)(O)CO[C@H](CO)Cn1ccc(N)nc1=O` [1-O-octadecylpropanediol-3-CDV], the “Selectivity Index” value in series [1] was 1 × 10^6.

For the molecule `Nc1ccn(C[C@H]2COP(=O)(O)CO2)c(=O)n1` [cCDV, cyclic cidofovir], in series [4], the CC50 at 5 days is above 1 mM. In addition, the CC50 in series [3] (as in Example 17 (Table 7)) is above 1000 µM; in “in vitro [5]” it was above 100 µM; in “in vitro [6]”, above 100 µM; in series [7], above 1000 µM.

Turning to `CCCCCCCCCCCCCCCCCCOCCCOP(=O)(O)C(O)(CCCN)P(=O)(O)O` (stereo not drawn) [1-O-octadecyloxypropyl alendronate, 1-O-octadecyloxypropyl-alendronate], in the series on postmenopausal women, the fractures entry was “fewer fractures” and the “rate of reduction in bone density” value is listed as “lesser rate of reduction in bone density than the placebo group”.

As for `Nc1ccn(C[C@@H](CO)OCP(=O)(O)O)c(=O)n1` [CDV, cidofovir], the CC50 at 5 days in series [4] was above 1 mM. In addition, the CC50 was above 1000 µM in series [3] (as in Example 17 (Table 7)), above 100 µM in the series “in vitro [5]”, 89.8 µM in the series “in vitro [6]” and 857 µM in series [7].
